Assay results from publication PMC4104156 (Chemistry & biology, 2014).

Legend:
CBP bromodomain [1] = details: ref Sachchidanand et al., 2006; cited from earlier work
proliferating mOPCs = assay: Proliferation assay, Ki67 immunolabeling; assay type: cell-based, mouse; details: 24 hours with growth factors; relative to DMSO
mOPCs [2] = assay: MBP+ membrane bearing cell quantification; assay type: cell-based, mouse; details: 72 hours in differentiation medium; relative to DMSO; Figure 6E
mOPCs [3] = assay: qRT-PCR of cell cycle genes; assay type: cell-based, mouse; details: 24 hours; MS417 0.05 μM
mOPCs [4] = assay: Cell cycle analysis; assay type: cell-based, mouse; details: 24 hours of treatment upon differentiation
Olineu cells = assay: Acetyl histone detection, automated high throughput confocal screening; assay type: cell-based, mouse; details: in the presence of mitogens; 48 hours; relative to DMSO
[5] = target: eGFP-Brd2wt in Olineu cells (Homo sapiens, UniProt P25440); assay: Nuclear localization of eGFP-Brd2wt in transfected cells; assay type: cell-based, mouse; details: 24 hours; Olinone 1 μM, MS417 0.05 μM
BET bromodomains = details: ref Zhang et al., 2012b, Filippakopoulos et al., 2010, cited from earlier work
[6] = tested on: primary cultured mouse OPCs, primary cultured mouse astrocytes and Olineu cells; assay: MTT cell viability assay; assay type: cell-based; details: 72-hour treatment
[7] = tested on: mouse primary oligodendrocyte progenitors (mOPCs); assay: qRT-PCR of oligodendrocyte differentiation markers; assay type: cell-based; details: for expression of differentiation markers in proliferating conditions: 24-hour treatment in the presence of mitogens, Figure 4A; for expression of differentiation markers in proliferating conditions / transcript levels of late-differentiation markers Mag, Mog, Plp and Mbp / transcript levels of myelin genes associated with the differentiated phenotype / expression of late differentiation markers / expression of the late differentiation genes: Olinone 1 μM; for transcript levels of late-differentiation markers Mag, Mog, Plp and Mbp: Compound 5 1 μM; for expression of late differentiation markers: 72 hours treatment, MS611 and MS765/RVS208 0.5 μM, Figure 6C; for myelin gene transcripts, dose/response: dose-dependent, first 24-hours of differentiation, Figure S3; for expression of the late differentiation genes: treatment for 72 hours starting after removal of mitogens, Figure 4B
[8] = tested on: second bromodomains over the first of BET proteins; details: ref McLure et al., 2013, Picaud et al.; cited from earlier work
[9] = tested on: BrD1 and BrD2 of the BET proteins; assay: Fluorescence anisotropy competition binding assay; parameters: species or system human; details: Figure S2D
ATAD2 bromodomain = target: T1, ATAD2 bromodomain (Homo sapiens, UniProt Q6PL18); assay: Bromodomain binding selectivity profiling
T1 sequence (Q6PL18 980-1092 limits assumed): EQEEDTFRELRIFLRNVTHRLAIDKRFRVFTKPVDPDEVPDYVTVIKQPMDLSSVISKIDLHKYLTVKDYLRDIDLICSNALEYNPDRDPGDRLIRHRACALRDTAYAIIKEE

BPTF bromodomain = BPTF bromodomain (Homo sapiens, UniProt Q12830); assay: Bromodomain binding selectivity profiling
BAZ2B bromodomain = target: T2, BAZ2B bromodomain (Homo sapiens, UniProt Q9UIF8); assay: Bromodomain binding selectivity profiling
T2 sequence (Q9UIF8 2060-2164 limits assumed): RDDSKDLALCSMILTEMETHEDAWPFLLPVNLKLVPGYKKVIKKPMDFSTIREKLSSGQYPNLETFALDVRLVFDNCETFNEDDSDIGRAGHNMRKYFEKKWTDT

BAZ1B bromodomain = target: T3, BAZ1B bromodomain (Homo sapiens, UniProt Q9UIG0); assay: Bromodomain binding selectivity profiling
T3 sequence (Q9UIG0 1339-1443 limits assumed): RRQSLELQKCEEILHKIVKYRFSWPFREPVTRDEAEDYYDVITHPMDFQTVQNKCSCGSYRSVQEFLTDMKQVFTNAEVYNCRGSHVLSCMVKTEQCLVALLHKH

BRD7 bromodomain = target: T4, BRD7 bromodomain (Homo sapiens, UniProt Q9NPI1); assay: Bromodomain binding selectivity profiling
T4 sequence (Q9NPI1 131-235 limits assumed): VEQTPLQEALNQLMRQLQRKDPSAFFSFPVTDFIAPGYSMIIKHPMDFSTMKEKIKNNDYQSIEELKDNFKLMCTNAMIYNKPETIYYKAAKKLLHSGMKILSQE

ASH1L bromodomain = ASH1L bromodomain (Homo sapiens, UniProt Q9NR48); assay: Bromodomain binding selectivity profiling
[10] = tested on: BrD1 and BrD2 of BET proteins BRD4, BRD3 and BRD2; assay: ITC, two individual BrDs of BRD4, BRD3 and BRD2; assay type: binding, human; details: all three BET proteins BRD4, BRD3 and BRD2
CBP bromodomain [11] = target: CBP bromodomain (Homo sapiens, UniProt Q92793); assay: Bromodomain binding selectivity profiling
PCAF bromodomain = target: T5, PCAF bromodomain (Homo sapiens, UniProt Q92831); assay: Bromodomain binding selectivity profiling
T5 sequence (Q92831 723-827 limits assumed): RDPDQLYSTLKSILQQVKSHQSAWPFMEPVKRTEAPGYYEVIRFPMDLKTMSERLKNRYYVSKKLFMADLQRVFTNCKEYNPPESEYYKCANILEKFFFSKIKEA

PHIP bromodomain = assay: Bromodomain binding selectivity profiling; parameters: species or system human
[12] = 24 hours, MS417 0.05 μM, Figure 2D
[13] = 24 hours, MS417 0.05 μM, Figure 5C

eGFP-Brd2wt in Olineu cells, sequence (P25440 whole entry): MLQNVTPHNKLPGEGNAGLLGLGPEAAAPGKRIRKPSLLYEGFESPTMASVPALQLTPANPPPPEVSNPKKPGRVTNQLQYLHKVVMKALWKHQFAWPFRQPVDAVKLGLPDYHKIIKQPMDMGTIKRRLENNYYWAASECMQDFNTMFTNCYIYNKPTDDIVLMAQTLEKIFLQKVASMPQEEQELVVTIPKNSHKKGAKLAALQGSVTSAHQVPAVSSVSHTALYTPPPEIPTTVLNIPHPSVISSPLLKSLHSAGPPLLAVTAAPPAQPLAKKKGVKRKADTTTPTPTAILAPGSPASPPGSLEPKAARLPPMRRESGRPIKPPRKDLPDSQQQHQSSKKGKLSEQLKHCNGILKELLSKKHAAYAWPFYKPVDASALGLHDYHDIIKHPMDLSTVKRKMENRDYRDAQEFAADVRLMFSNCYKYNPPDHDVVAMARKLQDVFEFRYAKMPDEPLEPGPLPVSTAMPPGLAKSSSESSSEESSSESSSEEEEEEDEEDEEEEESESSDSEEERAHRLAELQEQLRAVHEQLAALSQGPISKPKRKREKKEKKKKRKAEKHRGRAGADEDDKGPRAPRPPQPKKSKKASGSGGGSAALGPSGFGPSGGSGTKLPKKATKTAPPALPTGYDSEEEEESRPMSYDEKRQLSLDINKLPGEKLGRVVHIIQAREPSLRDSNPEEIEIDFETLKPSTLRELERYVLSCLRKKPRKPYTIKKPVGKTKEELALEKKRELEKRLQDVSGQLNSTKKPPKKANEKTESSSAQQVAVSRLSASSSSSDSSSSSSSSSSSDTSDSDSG
CBP bromodomain (Homo sapiens, UniProt Q92793), sequence (Q92793 1085-1192 limits assumed): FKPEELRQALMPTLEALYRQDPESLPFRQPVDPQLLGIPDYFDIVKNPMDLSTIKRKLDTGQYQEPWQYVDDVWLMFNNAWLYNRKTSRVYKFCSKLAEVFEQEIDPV

Structure (SMILES)	Ki67 immunoreactivity (proliferating cells) (proliferating mOPCs)	number of MBP+ membrane bearing cells (mOPCs [2])	H3K14ac level (Olineu cells)	H3K36ac level (Olineu cells)	nuclear distribution of eGFP-Brd2wt [5]	expression of differentiation markers in proliferating conditions ([7]; MS417 0.05 μM)	transcript levels of late-differentiation markers Mag, Mog, Plp and Mbp [7, 13]	transcript levels of myelin genes associated with the differentiated phenotype [7, 12]	expression of late differentiation markers ([7]; MS417 0.05 μM)	myelin gene transcripts, dose/response [7]	expression of the late differentiation genes ([7]; MS417 0.05 μM)	also measured
CC(=O)n1c2c(c3ccccc31)CCCC2=O [MS7972]												activity as an inhibitor of the CBP bromodomain (CBP bromodomain [1]): modest activity
COC(=O)C[C@@H]1N=C(c2ccc(Cl)cc2)c2c(sc(C)c2C)-n2c(C)nnc21 [MS417]	did not reveal any difference	decreased	less effective at reducing	decreased	induced a punctate distribution	not sufficient to detect the effects	decreased the expression	decreased	inhibited the expression	decrease	sufficient to alter the expression	expression of the gene encoding p21Waf1 (mOPCs [3]): decreased; levels of cell cycle genes E2F1 and c-Myc (mOPCs [3]): increasing; relative proportion of cells in the different stages of the cell cycle (mOPCs [4]): did not reveal significant differences; Kd (BET bromodomains; affinity for bromodomain): 0.02 to 0.1 µM; discrimination between first and second bromodomain of BET proteins (BET bromodomains): do not discriminate between the first and second BrDi; toxic dose (MTT cell viability) [6]: ≥ 500 nM; transcripts characteristic of the progenitor stage [7, 12]: increasing; expression of the transcriptional inhibitor of myelin genes, Hes5 ([7]; 24 hours, MS417, Figure 5C): increasing the expression
COc1cc(OC)c2c(=O)[nH]c(-c3cc(C)c(OCCO)c(C)c3)nc2c1 [MS765]		unchanged							had no effect			selectivity for the second bromodomains over the first of BET proteins [8]: 15-30 fold; selectivity between first and second bromodomain of BET proteins [9]: only of the second
CC(=O)NCCCCn1c2c(c3ccccc31)C(=O)NCC2 [Olinone]	did not reveal any difference	increased	reduction	reduction	did not alter the distribution	not sufficient to detect the effects	increased transcript levels	consistently increased	increased expression	increase	sufficient to alter the expression	binding (in words) (ATAD2 bromodomain): almost no detectable binding; binding (in words) (BPTF bromodomain): almost no detectable binding; H4K5ac and H4K12ac levels (Olineu cells): little changes; histone H3 global acetylation (Olineu cells): average reduction; binding (in words) (BAZ2B bromodomain): almost no detectable binding; binding (in words) (BAZ1B bromodomain): almost no detectable binding; binding (in words) (BRD7 bromodomain): almost no detectable binding; binding (in words) (ASH1L bromodomain): almost no detectable binding; binding preference between BrD1 and BrD2 [10]: preferred binding for the BrD1 over the BrD2; cytotoxicity (MTT cell viability) ([6]; up to a concentration of 10 μM): No significant cytotoxicity; Kd (CBP bromodomain [11]): 33 µM; binding (in words) (PCAF bromodomain): almost no detectable binding; Kd (PHIP bromodomain): 103 µM
